Assay results published in patent US7268118B2, “Thymosin β4 compositions” (United States of America as represented by The Secretary of …, priority 1998, dated 2007).

Columns and labels:
[1] = system: full thickness cutaneous rat wound; assay: Full thickness punch biopsy wound healing in rats; assay type: in vivo; conditions: for decrease in wound width relative to saline treated controls: intraperitoneal 60 μg in 300 μl
Experimental: Full thickness 8 mm punch biopsy wounds were made on the dorsal surface of rats as previously reported (Bhartiya et al., J. Cell. Physiol. 150:312, 1992; Sihhu et al., J. Cell. Physiol. 169:108, 1996) and Tβ4 was given topically at the time of wounding (5 μg in 50 μl) and again after 48 hours. Controls for the topical treatment received identical amounts of saline at the time of wounding and at 48 hours. Additional rats received intraperitoneal injections at the time of wounding (60 μg in 300 μl) and again every other day (e.g., days 0, 2, 4, and 6). Controls for these animals received identical amounts of saline intra-peritoneally on the same injection schedule. On days 4 and 7 post-wounding, measurements were made on the wound size. At days 8 and 9 post-wounding, tissue was collected and fixed in 10% buffered formalin. The samples were sectioned and stained with H&E and Masson's Trichrome (American Histolabs, Gaithersburg, Md.).
Histological sections were used to measure the re-epithelialization and the contraction of the wound using an ocular micrometer. Epidermal migration was determined by measuring the lengths of the tongues of epithelium migrating form either side of the wound over the wound bed from the zone of proliferation at the margin of the uninjured and wounded skin. Epidermal thickness was also measured beginning at the junction of the uninjured and proliferating epidermis. The thickness was measured vertically from the basement membrane to the most superficial layer of the migrating epidermis at every 200 microns. The mean epidermal thickness of each migrating tongue of epidermis was then computed from each wound. Vessel counts were performed by first identifying vascular spaces by their endothelial lining. All such vessels in the wound bed were counted including those at the junction of the dermis and the subcutis, since angiogenesis into the wounds occurs to a great extent from these vessels. The numbers were averaged into vessel counts per 10 high powered fields (40×).
The effect of Tβ4 on wound healing was studied in a full thickness cutaneous rat wound model. […] This model allowed measurement of two parameters: the re-epithelialization (gap) and the contraction (width) of the wound.

primary keratinocytes = assay: Keratinocyte migration assay in Boyden chamber; assay type: cell-based, mice
Experimental: Primary keratinocytes were prepared from either Balb/c or CD-1 newborn mice as described previously (Dlugosz et al., 1995). Cells were plated in calcium- and magnesium-free Eagle's Minimal Essential Medium (EMEM) containing 8% fetal calf serum treated with 8% Chelex (Bio-Rad Laboratories, Hercules, Calif.), 20 units/ml penicillin-streptomycin, and the calcium concentration was adjusted to 0.25 mM. The following day, cultures were washed with calcium- and magnesium-free phosphate buffered saline, treated briefly with Trypsin (Life Technologies, Gaithersburg, Md.), washed with culture medium and resuspended in EMEM containing 0.05 mM calcium. Cells were used immediately in migration assays.
Keratinocyte migration assays were carried out in Boyden chamber using 12 μm pore polyester membranes (Poretics, Livermore, Calif.) coated with a 0.1 mg/ml solution of collagen IV in dH2O (Trevigen, Gaithersburg, Md.). Filters were then dried at least 1 h. Cells were harvested using Versene or Trypsin (Life Technologies, Gaithersburg, Md.) and resuspended in Eagle's minimal essential medium with 0.05 mM Ca^2+. The bottom chamber was loaded with EMEM containing 0.01, 0.1, 10, 100, and 1000 ng/ml of synthetic Tβ4. […] The cells that migrated through the filter were quantitated by counting the center of each well at 10× using an Olympus CK2 microscope. […]

Corneal Epithelial Cell = assay: Corneal epithelial cell migration assay in Boyden chamber; assay type: cell-based
Experimental: Corneal Epithelial Cell migration assays were carried out in Boyden chamber using 12 μm pore polyester membranes (Poretics, Livermore, Calif.) coated with a 0.1 mg/ml solution of collagen IV in dH2O (Trevigen, Gaithersburg, Md.). Filters were then dried at least 1 h. Cells were cultured and resuspended in Eagle's Minimal Essential Medium with 0.05 mM Ca^2+. The bottom chamber was loaded with EMEM containing 0.01, 0.1, 10, 100, and 1000 ng/ml of synthetic Tβ4. Conditioned medium from primary dermal fibroblasts and/or keratinocyte growth factor was added to several wells as a positive control. Cells were added to the upper chamber at a concentration of 50,000 cells per well. Chambers were incubated at 35 C/7% CO2 for 4-5 hours and the filters were then fixed and stained using Diff-Quik (Baxter Healthcare Corporation, McGraw Park, Ill.). The cells that migrated through the filter were quantitated by counting the center of each well at 10× using an Olympus CK2 microscope. Each condition was assayed in triplicate wells and each experiment was repeated four times with different preparations of cells. […] Migration was enhanced 2-3 fold over migration in the presence of media alone (FIG. 7) with the highest level of migration seen at 100 ng/ml of Tβ4.

[2] = system: de-epithelialized Rat corneas; assay: In vivo corneal re-epithelialization
Experimental: To determine the effect of Tβ4 on corneal re-epithelialization in vivo, Rat corneas were de-epithelialized and treated with Tβ4. Filters were soaked in heptanol, applied to the eye for 30 seconds, and then the epithelium was scraped. Various concentration of Tβ4 in saline was applied to the eye and at 24 hours the rats were sacrificed. The eyes were fixed, sectioned and the degree of corneal epithelial migration (as measured in pixels) was determined using a microscope with an internal caliper by a masked observer.

[3] = system: wounds of steroid treated rats; assay: Impaired healing model (hydrocortisone treated rats); assay type: in vivo, rat
Experimental: Steroid treatment reduces the rate of wound repair in mammals. Rats treated with steroids such as hydrocortisone serve as a model of impaired wound healing due to the delay observed in wound closure. Animals were injected intramuscularly everyday with hydrocortisone.

[4] = intraperitoneal injection, day 4
[5] = intraperitoneal injection, day 7

thymosin β4 [Tβ4]
increase in the number of vessels in treated wounds ([1]; 7 day wounds): about 2 fold | decrease in wound width as compared to the saline controls ([1]; FIG. 2, topical 5 μg in 50 μl, as early as 4 days after wounding, continued until day 7): 15% | Epidermal Migration ([1]; I.P.): 3168.3 ± 38.4 μm | Epidermal Thickness ([1]; I.P.): 135.0 ± 11.7 μm | Vessels/10 HPF ([1]; I.P.): 2415.0 ± 24.3 | Epidermal Migration ([1]; Topical): 3668.7 ± 56.6 μm | Epidermal Thickness ([1]; Topical): 142.3 ± 19.8 μm | Vessels/10 HPF ([1]; Topical): 2186.0 ± 11.8 | re-epithelialization of the wound (histology) ([1]; day 7, intraperitoneal 60 μg/300 μl on alternate days): Increased re-epithelialization | neovascularization of the dermis (histology) ([1]; day 7, intraperitoneal and topical): significant new capillaries | re-epithelialization of the wound (histology) ([1]; day 7, topical 5 μg/50 μl): complete reepithelialization | thickness of the migrating epidermis versus control ([1]; either Tβ4 treatment (I.P., topical)): no difference | effect on wound healing at lower dose ([1]; intraperitoneal 6 μg in 300 μl): no effect | effect on wound healing at lower dose ([1]; intraperitoneal 30 μg in 300 μl): reduced | decrease in wound width relative to saline treated controls ([1]; day 4): 18% | decrease in wound width relative to saline treated controls ([1]; day 7): 11% | decrease in gap size relative to saline treated controls ([1]; intraperitoneal, 4th day post wounding): 42% | migration of epidermal tongues as compared to controls ([1]; intraperitoneally treated wounds): statistically significant increase | number of macrophages in the wounds ([1]; rat, in vivo): No increases | effect on wound healing at lower dose ([1]; topical 0.5 μg in 50 μl): no effect | effect on wound healing at lower dose ([1]; topical 2.5 μg in 50 μl): reduced | wound healing as compared to untreated wounds ([1]; topical or intraperitoneal): significantly accelerated wound healing | increase in migration of epidermal tongues over the wound bed ([1]; topical treatment): 1.5 fold | decrease in gap length as compared to saline controls ([1]; topical, 4 days after wounding): 18% | decrease in width, treated versus controls ([1]; topical, time not stated (FIG. 2)): about 15% | decrease in gap, treated versus controls ([1]; topical, time not stated (FIG. 3)): about 15% | decrease in gap size ([1]; wounds treated for 7 days, route not stated): 62% | migration at the maximal responding dose versus positive control (primary keratinocytes): exceeded the positive control | keratinocyte migration over media alone (primary keratinocytes; 4-5 hours, filters coated with collagen IV): 2-3 fold | corneal epithelial cell migration over media alone (Corneal Epithelial Cell; 4-5 hours of exposure): 2-3 fold | concentration with the highest level of migration (Corneal Epithelial Cell; tested 0.01-1000 ng/ml): 100 ng/mL | re-epithelialization of the cornea over untreated control ([2]; about 1 to 25 μg of Tβ4 in saline applied to the eye, 24 hours): 2 fold | inflammation of treated eyes compared to non-treated corneas ([2]; rat, in vivo): reduced inflammation | decrease in gap size [3, 4]: 28% | decrease in wound width [3, 4]: 14% | decrease in gap size [3, 5]: 26% | decrease in wound width [3, 5]: 10% | level of healing in steroid treated rats ([3]; topical or intraperitoneal): significant increase in the level of healing | gap or width closure compared to saline treatment ([3]; topical, day 4, N=3): ≤ 7% | decrease in gap compared to saline treatment ([3]; topical, day 7): 39% | decrease in wound width ([3]; topical, day 7): 23%
